According to patent US20090081704A1, “COMPOSITIONS, METHODS AND KITS FOR REAL-TIME ENZYME ASSAYS USING CHARGED MOLECULES” (priority 2004, published 2009):
K(Dye2) = not defined here; K(tet) = not defined here; code O = not defined here; C17 = C17 chain

How the values were obtained:
[1] = cited from earlier work
[2] = cited from earlier work; for Monera et al. Hydrophobicity at pH 7: normalized, phenylalanine 100, glycine 0
[3] = biological target: T1, PKCβII (Homo sapiens, UniProt P05771); test: Inhibition of PKCβII in real-time micelle kinase assay; format: biochemical; settings: FIGS. 5A-B, IC50 only in figures
T1 construct: purchased Upstate USA, Inc
T1 sequence (P05771 1-673 isoform P05771-2): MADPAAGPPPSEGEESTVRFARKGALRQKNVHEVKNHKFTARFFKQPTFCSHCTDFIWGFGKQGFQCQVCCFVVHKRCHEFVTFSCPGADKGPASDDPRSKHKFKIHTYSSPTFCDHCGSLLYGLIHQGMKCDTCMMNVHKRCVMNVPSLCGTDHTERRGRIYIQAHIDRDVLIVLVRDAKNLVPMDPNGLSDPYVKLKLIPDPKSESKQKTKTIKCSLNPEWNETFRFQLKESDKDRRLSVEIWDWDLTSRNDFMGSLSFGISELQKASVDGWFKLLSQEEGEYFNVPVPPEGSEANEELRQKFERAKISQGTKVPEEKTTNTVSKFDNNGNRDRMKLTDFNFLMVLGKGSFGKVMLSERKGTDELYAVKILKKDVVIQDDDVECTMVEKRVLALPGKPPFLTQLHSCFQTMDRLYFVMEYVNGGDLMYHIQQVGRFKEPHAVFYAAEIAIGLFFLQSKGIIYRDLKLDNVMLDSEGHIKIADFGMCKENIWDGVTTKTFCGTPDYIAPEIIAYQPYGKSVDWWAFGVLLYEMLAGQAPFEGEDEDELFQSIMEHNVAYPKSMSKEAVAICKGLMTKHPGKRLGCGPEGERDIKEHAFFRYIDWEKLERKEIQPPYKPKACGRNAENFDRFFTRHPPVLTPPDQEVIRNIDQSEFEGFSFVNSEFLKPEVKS
Procedure: A reaction solution (10 μl) was prepared containing the hydrophobic molecule C16OOOK(Dye2)EEIYGEF-amide (10 μM), and 10 μM charge-balance molecule Myelin Basic Protein (Upstate USA, Inc. cat. no: 13-104), in 20 mM Tris buffer, pH 7.6, MgCl2 (5 mM), DTT (5 mM), 10% Lipid Activator (Upstate USA, Inc), and PKCβII (0.15 ng/μl, Upstate USA, Inc.). The solution was pipetted into wells of a 384-well plate (10 μL per well), Corning 384-well, black, non-binding surface (NBS), microwell plates. […] ATP (10 μM) was added to initiate the kinase reaction. Fluorescence was read in real-time every 2 minutes for 2 hours, at ambient temperature, using, Molecular Devices (Sunnyvale, Calif.) Analyst GT, with excitation and emission set at 485 and 535 nm respectively.

[4] = biological target: T1, PKCβII; test: Real-time kinase assay with hydrophobic molecule and myelin basic protein micelle; format: biochemical; settings: FIG. 3A
Procedure: (§1) The compositions described herein are useful in the detection of enzymes. Real-time kinase assays for PKCβII, MAP kinase1/Erk1, and MAP kinase2/Erk2 using the hydrophobic molecule, C16OOOK(Dye 2)EEIYGEF-amide and charge-balance molecule, myelin basic protein with 0 or 100 μM ATP, are shown in FIGS. 3A-C.
(§2) A reaction solution (10 μl) was prepared containing the hydrophobic molecule C16OOOK(Dye2)EEIYGEF-amide (10 μM), and 10 μM charge-balance molecule Myelin Basic Protein (Upstate cat. no: 13-104), in 20 mM Tris buffer, pH 7.6, MgCl2 (5 mM), DTT (5 mM) and either PKCβII (0.15 ng/μl, Upstate USA, Inc.), MAP kinase1/Erk1 (1.5 ng/μl, Upstate USA, Inc.), or MAP kinase2/Erk2 (1.5 ng/μl, Upstate USA, Inc.). The solution was pipetted into wells of a 384-well plate (10 μL per well), Corning 384-well, black, non-binding surface (NBS), microwell plates. ATP (0 or 500 μM) was added to initiate the kinase reaction. Fluorescence was read in real-time every 2 minutes for 2 hours, at ambient temperature, using, Molecular Devices (Sunnyvale, Calif.) Analyst GT, with excitation and emission set at 485 and 535 nm respectively.

[5] = biological target: T2, MAP kinase2/Erk2 (Homo sapiens, UniProt P28482); test: as above; format: biochemical; settings: FIG. 3C
T2 construct: purchased Upstate USA, Inc
T2 sequence (P28482 whole entry): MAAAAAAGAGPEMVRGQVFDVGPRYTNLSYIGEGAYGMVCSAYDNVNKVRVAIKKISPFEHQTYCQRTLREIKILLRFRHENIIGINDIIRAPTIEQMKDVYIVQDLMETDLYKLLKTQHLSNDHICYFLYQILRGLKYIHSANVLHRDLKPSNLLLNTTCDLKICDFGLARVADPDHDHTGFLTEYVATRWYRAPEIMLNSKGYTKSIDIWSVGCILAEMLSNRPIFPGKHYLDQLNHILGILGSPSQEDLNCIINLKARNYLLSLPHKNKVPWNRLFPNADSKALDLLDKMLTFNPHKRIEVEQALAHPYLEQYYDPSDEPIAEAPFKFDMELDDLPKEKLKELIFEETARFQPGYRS
Procedure: as §1, §2

[6] = biological target: T3, MAP kinase1/Erk1 (Homo sapiens, UniProt P27361); test: as above; format: biochemical; settings: FIG. 3B
T3 construct: purchased Upstate USA, Inc
T3 sequence (P27361 whole entry): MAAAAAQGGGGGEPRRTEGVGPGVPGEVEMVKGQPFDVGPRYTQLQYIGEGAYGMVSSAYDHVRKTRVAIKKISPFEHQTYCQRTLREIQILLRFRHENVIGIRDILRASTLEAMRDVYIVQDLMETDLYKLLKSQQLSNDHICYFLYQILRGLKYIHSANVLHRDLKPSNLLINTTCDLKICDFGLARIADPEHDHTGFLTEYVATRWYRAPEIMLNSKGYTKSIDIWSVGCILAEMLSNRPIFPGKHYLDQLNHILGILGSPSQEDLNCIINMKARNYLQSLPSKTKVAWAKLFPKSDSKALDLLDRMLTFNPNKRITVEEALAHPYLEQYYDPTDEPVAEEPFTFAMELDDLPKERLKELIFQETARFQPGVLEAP
Procedure: as §1, §2

[7] = Freeze fracture electron microscopy of micelles; format: physicochemical; settings: 25 mM Tris pH 7.6; for micelle form seen in electron micrograph: FIGS. 1A-B
Excerpt: Micelle formation can be detected in a variety of ways, including fluorescence titration of the molecules in detergent, and dynamic laser light scattering. Additionally, direct visual evidence of micelle formation, and micelle disruption by adding a charged group, can be obtained by freeze fracturing electron microscopy. For example, FIG. 1A is an electron micrograph of micelles comprising the hydrophobic molecule, C17OOOK(tet)RQGSFRA-amide. […] “Tet” is a fluorescent moiety provided by 2′,7′,4,7-tetachloro-5-carboxy fluorescein (2′,7-dichloro-5-carboxy-4,7-dichlorofluorescein). OOO represents optional O-spacers comprising (bis)ethylene glycol group(s). […] FIG. 1B is an electron micrograph of micelles comprising a phosphorylated hydrophobic molecule, C17OOOK(tet)RQGS(p)FRA-amide. […] Thus, the addition of two negative charges to the hydrophobic molecule, results in micelle disruption and deaggregation.
For freeze fracture electron microscopy, the hydrophobic molecule, C17OOO K(tet)RQGSFRA-amide phosphorylated hydrophobic molecule C17OOOK (tet)RQGS(p)FRA-amide were each dissolved in 25 mM Tris (pH 7.6), 5 mM MgCl and 5 mM DTT. The samples were frozen in liquid nitrogen-cooled propane. […] The fracturing process was carried out in a JEOL JED-9000 freeze-etching machine and the exposed fractured planes were shadowed with Pt for thirty seconds at an angle of 25-35 C and with carbon for 35 seconds (2 kV/60-70 mA, 1×10^−5 Torr). The replicas produced were cleaned with concentrated chloroform/methanol (1:1 by volume) at least five times. The cleaned replicas were examined with a JEOL 1000CX or Philips CM 10 electron microscope.

Row | Molecule | α-COOH pKa [1] | Monera et al. Hydrophobicity at pH 7 [2] | α-NH3+ pKa [1] | also measured
1 | C[C@H](N)C(=O)O [Alanine (A), Alanine] | 2.4 | 41 | – | –
2 | N=C(N)NCCC[C@H](N)C(=O)O [Arginine (R), Arginine] | 2.2 | – | – | –
3 | NC(=O)C[C@H](N)C(=O)O [Asparagine (N), Asparagine] | 2.0 | −28 | 8.8 | –
4 | N[C@@H](CS)C(=O)O [Cysteine (C), Cysteine] | – | 49 | – | Side chain pKa [1]: about 8
5 | O=S(=O)(NCCNC/C=C/c1ccc(Br)cc1)c1cccc2cnccc12 [H98, H89] | – | – | – | effect of increasing concentrations of enzyme inhibitor on fluorescence [3]: decrease in fluorescence
6 | N[C@@H](Cc1c[nH]cn1)C(=O)O [Histidine (H), Histidine] | – | 8 | – | –
7 | CC[C@H](C)[C@H](N)C(=O)O [Isoleucine (I), Isoleucine] | 2.4 | 99 | 9.7 | –
8 | NCCCC[C@H](N)C(=O)O [Lysine (K), Lysine] | – | −23 | 9.0 | –
9 | CSCC[C@H](N)C(=O)O [Methionine (M), Methionine] | 2.3 | 74 | 9.2 | –
10 | N[C@@H](Cc1ccccc1)C(=O)O [Phenylalanine (F), Phenylalanine] | – | 100 | – | –
11 | O=C(O)[C@@H]1CCCN1 [Proline (P), Proline] | 2.1 | – | – | Monera et al. Hydrophobicity ([2]; pH 2): −46 (pH 2)
12 | N[C@@H](CO)C(=O)O [Serine (S), Serine] | – | −5 | 9.2 | Side chain pKa [1]: ~13
13 | C[C@@H](O)[C@H](N)C(=O)O [Threonine (T), Threonine] | 2.6 | – | 10.4 | Side chain pKa [1]: ~13
14 | N[C@@H](Cc1c[nH]c2ccccc12)C(=O)O [Tryptophan (W), Tryptophan] | 2.4 | 97 | – | –
15 | N[C@@H](Cc1ccc(O)cc1)C(=O)O [Tyrosine (Y), Tyrosine] | – | 63 | – | –
16 | CC(C)[C@H](N)C(=O)O [Valine (V), Valine] | – | 76 | – | –
17 | C16OOOK(Dye2)EEIYGEF-amide ({C16-code O-code O-code O-K(Dye2)}-EEIYGEF-NH2; reading uncertain; also: printed as C16OOOK(Dye2)EEIYGEF-amide) [C16OOOK(Dye 2)EEIYGEF-amide, hydrophobic molecule: C16 carbon chain, O-spacers, lysine-linked 5-carboxy-2′,7′-dipyridyl-sulfonefluorescein, peptide EEIYGEF-amide] | – | – | – | increase in fluorescence over time on addition of enzyme [4]: greater than 4 fold; increase in fluorescence over time on addition of enzyme [5]: greater than 4 fold; increase in fluorescence over time on addition of enzyme [6]: greater than 4 fold
18 | C17OOOK(tet)RQGS(p)FRA-amide | – | – | – | micelle form seen in electron micrograph [7]: only form small spheres and small clusters of spheres
19 | C17OOOK(tet)RQGSFRA-amide ({C17-code O-code O-code O-K(tet)}-RQGSFRA-NH2; reading uncertain; also: printed as C17OOOK(tet)RQGSFRA-amide) [hydrophobic molecule: C17 carbon chain, O-spacers, lysine-linked tet fluorescein dye, peptide RQGSFRA-amide] | – | – | – | micelle form seen in electron micrograph [7]: cylindrical or tubular micelles; diameter of cylindrical or tubular micelles ([7]; electron micrograph FIG. 1A): 20-60 nm; length of cylindrical or tubular micelles ([7]; electron micrograph FIG. 1A): 200-1000 nm
